Legend:
[1] = target: T1, PTPN2 (HiBIT-PTPN2 in 293T.109 cells) (Homo sapiens, UniProt P17706); experiment: HiBiT Degradation 293T.109 PTPN2 (Nano-Glo HiBiT Lytic Assay); format: cell-based; details: 24.0 hours
T1 construct: expressed in transfected cells; host or cells: 293T.109 (293T WT from ATCC)
T1 sequence (P17706 1-415): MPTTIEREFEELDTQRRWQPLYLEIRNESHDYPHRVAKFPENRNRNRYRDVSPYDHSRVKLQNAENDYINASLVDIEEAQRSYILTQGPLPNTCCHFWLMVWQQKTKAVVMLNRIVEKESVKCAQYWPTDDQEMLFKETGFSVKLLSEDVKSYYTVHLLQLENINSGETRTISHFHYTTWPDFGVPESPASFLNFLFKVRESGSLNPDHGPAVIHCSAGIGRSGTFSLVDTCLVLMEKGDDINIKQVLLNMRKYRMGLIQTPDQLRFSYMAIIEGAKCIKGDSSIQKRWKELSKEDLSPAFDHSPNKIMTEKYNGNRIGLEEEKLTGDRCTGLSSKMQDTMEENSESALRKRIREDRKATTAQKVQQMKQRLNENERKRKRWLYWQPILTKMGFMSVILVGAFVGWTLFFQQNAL
In short: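 Degradation read-out: lytic HiBiT luminescence after 24 h treatment (37 °C, 5% CO2) of 5000 293T cells per well expressing HiBiT-fused PTPN2 from an N-terminal tag. Dosing was 11 points, half-log steps down from 10 μM, in duplicate; vehicle-treated and no-reagent wells served as controls.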

PTPN2 (B16F10.4 cells) = target: T2, PTPN2 (B16F10.4 cells) (Mus musculus, UniProt Q06180); experiment: HiBiT Degradation B16F10.4 PTPN2; format: cell-based; details: 24.0 hours
T2 construct: HiBiT; host or cells: B16F10.4
T2 sequence (Q06180 1-406): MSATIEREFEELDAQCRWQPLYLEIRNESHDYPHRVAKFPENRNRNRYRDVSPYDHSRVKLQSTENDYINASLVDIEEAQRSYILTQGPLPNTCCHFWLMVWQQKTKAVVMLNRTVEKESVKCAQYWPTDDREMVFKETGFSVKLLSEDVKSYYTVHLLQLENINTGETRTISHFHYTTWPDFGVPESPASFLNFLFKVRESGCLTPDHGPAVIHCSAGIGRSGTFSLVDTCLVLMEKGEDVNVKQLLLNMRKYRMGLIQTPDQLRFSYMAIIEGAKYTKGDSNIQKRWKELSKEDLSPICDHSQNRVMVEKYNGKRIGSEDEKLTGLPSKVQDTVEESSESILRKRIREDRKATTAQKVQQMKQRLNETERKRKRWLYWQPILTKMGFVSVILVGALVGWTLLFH

DC50 [1]	DC50 (PTPN2 (B16F10.4 cells))	Structure (SMILES)
50 to 200 nM	< 50 nM	CC1(C)C[C@@H](Nc2cccc(-c3sc(C(=O)O)c(OCC(=O)O)c3Cl)c2)CCN1S(=O)(=O)Cc1ccc(F)c(NC(=O)N2CCC(c3ccc4c5c(cccc35)C(=O)N4C3CCC(=O)NC3=O)CC2)c1 (stereo partly drawn) [Example 126]
200 to 1000 nM	50 to 200 nM	Cn1c(=O)n(C2CCC(=O)NC2=O)c2ccc(C3CCN(C(=O)Nc4cccc(CS(=O)(=O)N5CC[C@H](Oc6cccc(-c7sc(C(=O)O)c(OCC(=O)O)c7Cl)c6)CC5(C)C)c4)CC3)cc21 (stereo partly drawn) [Example 225, 3-(carboxymethoxy)-4-chloro-5-(3-(((4S)-1-((3-(4-(1-(2,6-dioxopiperidin-3-yl)-3-methyl-2-oxo-2,3-dihydro-1H-benzo[d]imidazol-5-yl)piperidine-1-carboxamido)benzyl)sulfonyl)-2,2-dimethylpiperidin-4-yl)oxy)phenyl)thiophene-2-carboxylic acid]
≥ 1000 nM	≥ 1000 nM	O=C(O)COc1c(C(=O)O)sc(-c2cccc(NC3CCN(S(=O)(=O)Cc4cccc(NC(=O)CN5CCC(n6nc(C7CCC(=O)NC7=O)c7ccccc76)CC5)c4)CC3)c2)c1Cl (stereo not drawn) [Example 54]
200 to 1000 nM	< 50 nM	CC1(C)C[C@H](Nc2cccc(-c3sc(C(=O)O)c(OCC(=O)O)c3Cl)c2)CCN1S(=O)(=O)Cc1cc(NC(=O)N2CCC(c3ccc4c5c(cccc35)C(=O)N4C3CCC(=O)NC3=O)CC2)ccc1F (stereo partly drawn) [Example 162]
200 to 1000 nM	200 to 1000 nM	Cc1nn(C2CCC(=O)NC2=O)c2ccc(C3CCN(C(=O)Nc4cccc(CS(=O)(=O)N5CC[C@H](Nc6cccc(-c7sc(C(=O)O)c(OCC(=O)O)c7Cl)c6)CC5(C)C)c4)CC3)cc12 (stereo partly drawn) [Example 233, 3-(carboxymethoxy)-4-chloro-5-[3-[[(4S)-1-[[3-[[4-[1-(2,6-dioxo-3-piperidyl)-3-methyl-indazol-5-yl]piperidine-1-carbonyl]amino]phenyl]methylsulfonyl]-2,2-dimethyl-4-piperidyl]amino]phenyl]thiophene-2-carboxylic acid]
200 to 1000 nM	≥ 1000 nM	O=C(O)COc1c(C(=O)O)sc(-c2cccc(NC3CCN(S(=O)(=O)Cc4cccc(NC(=O)CCCCNC(=O)CNc5cccc6c5CN(C5CCC(=O)NC5=O)C6=O)c4)CC3)c2)c1Cl (stereo not drawn) [Example 22, 3-(carboxymethoxy)-4-chloro-5-(3-((1-((3-(5-(2-((2-(2,6-dioxopiperidin-3-yl)-1-oxoisoindolin-4-yl)amino)acetamido)pentanamido)benzyl)sulfonyl)piperidin-4-yl)amino)phenyl)thiophene-2-carboxylic acid]
< 50 nM	200 to 1000 nM	CC1(C)C[C@@H](Nc2cccc(-c3sc(C(=O)O)c(OCC(=O)O)c3Cl)c2)CCN1S(=O)(=O)Cc1cccc(NC(=O)C2CN(C(=O)CNc3cccc4c3CN([C@@H]3CCC(=O)NC3=O)C4=O)C2)c1 (single isomer, unassigned) [Example 44a]
200 to 1000 nM	200 to 1000 nM	CC1(C)C[C@@H](Nc2cccc(-c3sc(C(=O)O)c(OCC(=O)O)c3Cl)c2)CCN1S(=O)(=O)Cc1cccc(NC(=O)CCn2cc(CNc3cccc4c3C(=O)N(C3CCC(=O)NC3=O)C4=O)nn2)c1 (stereo partly drawn) [Example 13, 3-(carboxymethoxy)-4-chloro-5-(3-(((4S)-1-((3-(3-(4-(((2-(2,6-dioxopiperidin-3-yl)-1,3-dioxoisoindolin-4-yl)amino)methyl)-1H-1,2,3-triazol-1-yl)propanamido)benzyl)sulfonyl)-2,2-dimethylpiperidin-4-yl)amino)phenyl)thiophene-2-carboxylic acid]
200 to 1000 nM	200 to 1000 nM	Cn1c(=O)n(C2CCC(=O)NC2=O)c2cccc(C3CCN(C(=O)Nc4cccc(CS(=O)(=O)N5CCC(Nc6cccc(-c7sc(C(=O)O)c(OCC(=O)O)c7Cl)c6)CC5)c4)CC3)c21 (stereo not drawn) [Example 52, 3-(carboxymethoxy)-4-chloro-5-[3-[[1-[[3-[[4-[1-(2,6-dioxo-3-piperidyl)-3-methyl-2-oxo-benzimidazol-4-yl]piperidine-1-carbonyl]amino]phenyl]methylsulfonyl]-4-piperidyl]amino]phenyl]thiophene-2-carboxylic acid]
50 to 200 nM	< 50 nM	Cn1c(=O)n(C2CCC(=O)NC2=O)c2ccc(C3CCN(C(=O)Nc4cccc(CS(=O)(=O)N5CC[C@H](Nc6cccc(-c7sc(C(=O)O)c(OCC(=O)O)c7Cl)c6)CC5(C)C)c4)CC3)cc21 (stereo partly drawn) [Example 60, 3-(carboxymethoxy)-4-chloro-5-(3-(((4S)-1-((3-(4-(1-(2,6-dioxopiperidin-3-yl)-3-methyl-2-oxo-2,3-dihydro-1H-benzo[d]imidazol-5-yl)piperidine-1-carboxamido)benzyl)sulfonyl)-2,2-dimethylpiperidin-4-yl)amino)phenyl)thiophene-2-carboxylic acid]
50 to 200 nM	50 to 200 nM	CC1(C)C[C@@H](Nc2cccc(-c3sc(C(=O)O)c(OCC(=O)O)c3Cl)c2)CCN1S(=O)(=O)Cc1cccc(NC(=O)N2CCC(c3ccc4c(c3)n(C3CC3)c(=O)n4C3CCC(=O)NC3=O)CC2)c1 (stereo partly drawn) [Example 154, 3-(carboxymethoxy)-4-chloro-5-[3-[[(4S)-1-[[3-[[4-[3-cyclopropyl-1-(2,6-dioxo-3-piperidyl)-2-oxo-benzimidazol-S-yl]piperidine-1-carbonyl]amino]phenyl]methylsulfonyl]-2,2-dimethyl-4-piperidyl]amino]phenyl]thiophene-2-carboxylic acid]
50 to 200 nM	50 to 200 nM	CC(C)n1c(=O)n(C2CCC(=O)NC2=O)c2ccc(C3CCN(CC(=O)Nc4cccc(CS(=O)(=O)N5CC[C@H](Nc6cccc(-c7sc(C(=O)O)c(OCC(=O)O)c7Cl)c6)CC5(C)C)c4)CC3(F)F)cc21 (stereo partly drawn) [Example 176, 3-(carboxymethoxy)-4-chloro-5-[3-[[(4S)-1-[[3-[[2-[4-[1-(2,6-dioxo-3-piperidyl)-3-isopropyl-2-oxo-benzimidazol-5-yl]-3,3-difluoro-1-piperidyl]acetyl]amino]phenyl]methylsulfonyl]-2,2-dimethyl-4-piperidyl]amino]phenyl]thiophene-2-carboxylic acid]
50 to 200 nM	50 to 200 nM	CC1(C)C[C@@H](Nc2cccc(-c3sc(C(=O)O)c(OCC(=O)O)c3Cl)c2)CCN1S(=O)(=O)Cc1cccc(NC(=O)N2CCCN(c3ccc4c5c(cccc35)C(=O)N4C3CCC(=O)NC3=O)CC2)c1 (stereo partly drawn) [Example 163, 3-(carboxymethoxy)-4-chloro-5-(3-(((4S)-1-((3-(4-(1-(2,6-dioxopiperidin-3-yl)-2-oxo-1,2-dihydrobenzo[cd]indol-6-yl)-1,4-diazepane-1-carboxamido)benzyl)sulfonyl)-2,2-dimethylpiperidin-4-yl)amino)phenyl)thiophene-2-carboxylic acid]
50 to 200 nM	50 to 200 nM	Cn1c(=O)n(C2CCC(=O)NC2=O)c2ccc(N3CCC(C(=O)Nc4cccc(CS(=O)(=O)N5CC[C@H](Nc6cccc(-c7sc(C(=O)O)c(OCC(=O)O)c7Cl)c6)CC5(C)C)c4)CC3)cc21 (stereo partly drawn) [Example 122]
< 50 nM	200 to 1000 nM	CC1(C)C[C@@H](Nc2cccc(-c3sc(C(=O)O)c(OCC(=O)O)c3Cl)c2)CCN1S(=O)(=O)Cc1cccc(NC(=O)C2CN(C(=O)CNc3cccc4c3CN(C3CCC(=O)NC3=O)C4=O)C2)c1 (stereo partly drawn) [Example 44, 3-(Carboxymethoxy)-4-chloro-5-(3-(((4S)-1-((3-(1-((2-(2,6-dioxopiperidin-3-yl)-1-oxoisoindolin-4-yl)glycyl)azetidine-3-carboxamido)benzyl)sulfonyl)-2,2-dimethylpiperidin-4-yl)amino)phenyl)thiophene-2-carboxylic acid]
